Data published in US9951040B2, “1,3,5 -triazine based PI3K inhibitors as anticancer agents and a process for the preparation thereof” (Council of Scientific and Industrial Research, priority 2014, dated 2018).
Like-named read-outs stand apart in the source and are kept apart here.

Molecular target: PI3K alpha (Homo sapiens, UniProt P42336)
Assay: PI3K-α assay (ADP-Glo enzyme inhibition)
Type: biochemical
Conditions: at 500 nm
Protocol: Compounds were evaluated for their ability to inhibit class I PI3-kinase enzyme alpha as given below. PI3K-α Assay: PI3K alpha (diluted in 12.5 mM Glycine-NaOH (pH 8.5), 50 mM KCl, 2.5 mM MgCl2, 1 mM DTT, 0.05% CHAPS) is assayed in total volume of 20 ul containing 12.5 mM glycine-NaOH (pH 8.5), 50 mM KCl, 2.5 mM MgCl2, 1 mM DTT, 0.05% CHAPS, 0.01 mM ATP and 0.05 mM diC8 PIP2. The enzyme is assayed for 80 min after which 20 ul of ADP-Glo reagent is added. After a further incubation of 40 min, 40 ul of Kinase Detection Buffer is added. The assays are incubated for 40 min and then read on PerkinElmer Envision for 1 sec/well.

[1] = read-out: In vitro PI3K α % of inhibition
[2] = read-out: inhibition against PI3K alpha

PI3K alpha, sequence (P42336 whole entry, species assumed): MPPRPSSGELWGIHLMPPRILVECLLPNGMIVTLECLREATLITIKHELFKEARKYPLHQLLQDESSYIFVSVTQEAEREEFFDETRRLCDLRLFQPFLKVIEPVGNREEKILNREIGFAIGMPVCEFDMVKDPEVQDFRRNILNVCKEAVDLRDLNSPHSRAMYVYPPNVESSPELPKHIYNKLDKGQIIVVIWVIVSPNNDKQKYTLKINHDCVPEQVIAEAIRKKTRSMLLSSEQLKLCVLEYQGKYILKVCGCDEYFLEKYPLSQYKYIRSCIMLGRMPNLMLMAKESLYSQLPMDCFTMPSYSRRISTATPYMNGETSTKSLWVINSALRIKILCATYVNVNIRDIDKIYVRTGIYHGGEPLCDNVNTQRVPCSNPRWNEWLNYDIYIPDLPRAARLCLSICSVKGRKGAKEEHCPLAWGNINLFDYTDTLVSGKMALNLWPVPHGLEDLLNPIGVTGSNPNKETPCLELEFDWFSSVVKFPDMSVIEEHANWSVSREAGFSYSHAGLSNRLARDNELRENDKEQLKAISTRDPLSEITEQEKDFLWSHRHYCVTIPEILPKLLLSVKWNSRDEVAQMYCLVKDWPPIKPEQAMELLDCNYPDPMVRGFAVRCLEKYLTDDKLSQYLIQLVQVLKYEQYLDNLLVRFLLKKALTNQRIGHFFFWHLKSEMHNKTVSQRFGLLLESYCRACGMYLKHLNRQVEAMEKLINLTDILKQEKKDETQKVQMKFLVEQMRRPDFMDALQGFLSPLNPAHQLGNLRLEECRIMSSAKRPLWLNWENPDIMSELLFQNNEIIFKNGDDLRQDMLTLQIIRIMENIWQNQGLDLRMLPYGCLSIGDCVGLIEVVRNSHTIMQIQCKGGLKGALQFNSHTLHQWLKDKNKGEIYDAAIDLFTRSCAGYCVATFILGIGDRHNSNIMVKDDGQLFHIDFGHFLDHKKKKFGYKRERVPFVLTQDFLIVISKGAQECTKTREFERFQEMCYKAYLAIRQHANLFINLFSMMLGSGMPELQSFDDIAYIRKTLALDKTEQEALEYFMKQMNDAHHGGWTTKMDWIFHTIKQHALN
PI3K alpha, sequence (P27986 whole entry partner, species assumed): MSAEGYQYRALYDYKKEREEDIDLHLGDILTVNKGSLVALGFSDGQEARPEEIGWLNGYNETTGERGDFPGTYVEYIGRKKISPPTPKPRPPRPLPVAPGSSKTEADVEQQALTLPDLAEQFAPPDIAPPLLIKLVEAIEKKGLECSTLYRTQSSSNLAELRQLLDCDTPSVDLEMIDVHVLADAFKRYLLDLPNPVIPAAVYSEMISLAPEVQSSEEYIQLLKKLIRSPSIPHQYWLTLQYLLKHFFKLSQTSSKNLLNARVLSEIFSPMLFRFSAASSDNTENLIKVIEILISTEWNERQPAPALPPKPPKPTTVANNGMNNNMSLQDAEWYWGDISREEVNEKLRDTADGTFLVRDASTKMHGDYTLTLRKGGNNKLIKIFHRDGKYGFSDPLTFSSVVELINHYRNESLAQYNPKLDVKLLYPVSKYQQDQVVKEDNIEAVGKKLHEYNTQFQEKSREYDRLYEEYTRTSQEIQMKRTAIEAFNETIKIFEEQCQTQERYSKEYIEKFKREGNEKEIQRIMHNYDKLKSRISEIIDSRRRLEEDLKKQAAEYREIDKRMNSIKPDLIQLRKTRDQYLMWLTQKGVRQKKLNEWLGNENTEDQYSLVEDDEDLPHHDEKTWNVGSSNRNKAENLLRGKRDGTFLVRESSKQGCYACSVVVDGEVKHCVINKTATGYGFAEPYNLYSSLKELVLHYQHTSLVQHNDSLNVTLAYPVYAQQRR

| Structure (SMILES) | inhibition at 0.5 µM [1] | inhibition at 0.5 µM [2] |
| --- | --- | --- |
| O=C(N(C(=O)C(F)(F)F)c1nc(N2CCOCC2)nc(N2CCC(Oc3ccccc3F)CC2)n1)C(F)(F)F [1A14, 2,2,2-trifluoro-N-(4-(4-(2-fluorophenoxy)piperidin-1-yl)-6-morpholino-1,3,5-triazin-2-yl)-N-(2,2,2-trifluoroacetyl)acetamide] | > 70% | > 70% |
| Fc1ccccc1OC1CCN(c2nc(N3CCOCC3)nc(-n3c(C(F)F)nc4ccccc43)n2)CC1 [1B9, 4-(4-(2-(difluoromethyl)-1H-benzo[d]imidazol-1-yl)-6-(4-(2-fluorophenoxy)piperidin-1-yl)-1,3,5-triazin-2-yl)morpholine] | 50 to 70% |  |
| O=C(N(c1ccccc1)c1nc(N2CCOCC2)nc(N2CCC(Oc3ccc(C(F)(F)F)cc3)CC2)n1)C(F)(F)F [1A7, 2,2,2-trifluoro-N-(4-morpholino-6-(4-(4-(trifluoromethyl)phenoxy)piperidin-1-yl)-1,3,5-triazin-2-yl)-N-phenylacetamide] | 50 to 70% |  |
| FC(F)(F)c1ccccc1NC1CCN(c2nc(N3CCOCC3)nc(-n3cnc4ccccc43)n2)CC1 [1B40, 1-(4-(1H-benzo[d]imidazol-1-yl)-6-morpholino-1,3,5-triazin-2-yl)-N-(2-(trifluoromethyl)phenyl)piperidin-4-amine] | 50 to 70% |  |
| Fc1ccc(N(c2ccncc2C(F)(F)F)C2CCN(c3nc(N4CCOCC4)nc(-n4c(C(F)F)nc5ccccc54)n3)CC2)cc1 [1B45, N-(1-(4-(2-(difluoromethyl)-1H-benzo[d]imidazol-1-yl)-6-morpholino-1,3,5-triazin-2-yl)piperidin-4-yl)-N-(4-fluorophenyl)-3-(trifluoromethyl)pyridin-4-amine] | 50 to 70% |  |
| FC(F)(F)c1ccc(NC2CCN(c3nc(N4CCOCC4)nc(-n4cnc5ccccc54)n3)CC2)cc1 [1B35, 1-(4-(1H-benzo[d]imidazol-1-yl)-6-morpholino-1,3,5-triazin-2-yl)-N-(4-(trifluoromethyl)phenyl)piperidin-4-amine] | 50 to 70% |  |
| Fc1cccc(OC2CCN(c3nc(N4CCOCC4)nc(-n4c(C(F)F)nc5ccccc54)n3)CC2)c1 [1B8, 4-(4-(2-(difluoromethyl)-1H-benzo[d]imidazol-1-yl)-6-(4-(3-fluorophenoxy)piperidin-1-yl)-1,3,5-triazin-2-yl)morpholine] | > 70% | > 70% |
| Clc1ccccc1NC1CCN(c2nc(N3CCOCC3)nc(-n3cnc4ccccc43)n2)CC1 [1B39, 1-(4-(1H-benzo[d]imidazol-1-yl)-6-morpholino-1,3,5-triazin-2-yl)-N-(2-chlorophenyl)piperidin-4-amine] | 50 to 70% |  |
| COc1cccc(NC2CCN(c3nc(N4CCOCC4)nc(-n4c(C(F)F)nc5ccccc54)n3)CC2)c1 [1B31, 1-(4-(2-(difluoromethyl)-1H-benzo[d]imidazol-1-yl)-6-morpholino-1,3,5-triazin-2-yl)-N-(3-methoxyphenyl)piperidin-4-amine] | > 70% | > 70% |
| FC(F)(F)c1ccc(OC2CCN(c3nc(N4CCOCC4)nc(-n4cnc5ccccc54)n3)CC2)cc1 [1B15, 4-(4-(1H-benzo[d]imidazol-1-yl)-6-(4-(4-(trifluoromethyl)phenoxy)piperidin-1-yl)-1,3,5-triazin-2-yl)morpholine] | > 70% | > 70% |
| Fc1ccc(N(c2ccc(Br)cc2)C2CCN(c3nc(N4CCOCC4)nc(-n4c(C(F)F)nc5ccccc54)n3)CC2)cc1 [1B42, N-(4-bromophenyl)-1-(4-(2-(difluoromethyl)-1H-benzo[d]imidazol-1-yl)-6-morpholino-1,3,5-triazin-2-yl)-N-(4-fluorophenyl)piperidin-4-amine] | > 70% | > 70% |
| FC(F)(F)Oc1ccc(OC2CCN(c3nc(N4CCOCC4)nc(N(c4ccccc4)c4ccccc4)n3)CC2)cc1 [1A20, 4-morpholino-N,N-diphenyl-6-(4-(4-(trifluoromethoxy)phenoxy)piperidin-1-yl)-1,3,5-triazin-2-amine] | 50 to 70% |  |
| c1ccc(OC2CCN(c3nc(N4CCOCC4)nc(N(c4ccccc4)c4ccccc4)n3)CC2)cc1 [1A18, 4-morpholino-6-(4-phenoxypiperidin-1-yl)-N,N-diphenyl-1,3,5-triazin-2-amine] | 50 to 70% |  |

Continued, values first:

| inhibition at 0.5 µM [1] | inhibition at 0.5 µM [2] | Structure (SMILES) |
| --- | --- | --- |
| > 70% | > 70% | Fc1ccc(N(c2ccc(F)cc2)C2CCN(c3nc(N4CCOCC4)nc(-n4c(C(F)F)nc5ccccc54)n3)CC2)cc1 [1B41, 1-(4-(2-(difluoromethyl)-1H-benzo[d]imidazol-1-yl)-6-morpholino-1,3,5-triazin-2-yl)-N,N-bis(4-fluorophenyl)piperidin-4-amine] |
| > 70% | > 70% | FC(F)c1nc2ccccc2n1-c1nc(N2CCOCC2)nc(N2CCC(Oc3ccccc3C(F)(F)F)CC2)n1 [1B4, 4-(4-(2-(difluoromethyl)-1H-benzo[d]imidazol-1-yl)-6-(4-(2-(trifluoromethyl)phenoxy)piperidin-1-yl)-1,3,5-triazin-2-yl)morpholine] |
| 50 to 70% |  | Cc1ccc(OC2CCN(c3nc(N(C)C)nc(N4CCOCC4)n3)CC2)cc1 [1A16, N,N-dimethyl-4-morpholino-6-(4-(p-tolyloxy)piperidin-1-yl)-1,3,5-triazin-2-amine] |
| > 70% | > 70% | Cc1ccc(OC2CCN(c3nc(N4CCOCC4)nc(N(C(=O)C(F)(F)F)c4ccccc4)n3)CC2)cc1 [1A8, 2,2,2-trifluoro-N-(4-morpholino-6-(4-(p-tolyloxy)piperidin-1-yl)-1,3,5-triazin-2-yl)-N-phenylacetamide] |
| 50 to 70% |  | Cc1ccc(NC2CCN(c3nc(N4CCOCC4)nc(-n4cnc5cc(F)ccc54)n3)CC2)cc1 [1B33, 1-(4-(5-fluoro-1H-benzo[d]imidazol-1-yl)-6-morpholino-1,3,5-triazin-2-yl)-N-(p-tolyl)piperidin-4-amine] |
| 50 to 70% |  | FC(F)c1nc2ccccc2n1-c1nc(N2CCOCC2)nc(N2CCC(Oc3ccc(OC(F)(F)F)cc3)CC2)n1 [1B3, 4-(4-(2-(difluoromethyl)-1H-benzo[d]imidazol-1-yl)-6-(4-(4-(trifluoromethoxy)phenoxy)piperidin-1-yl)-1,3,5-triazin-2-yl)morpholine] |
| 50 to 70% |  | FC(F)(F)Oc1ccc(NC2CCN(c3nc(N4CCOCC4)nc(-n4cnc5ccccc54)n3)CC2)cc1 [1B36, 1-(4-(1H-benzo[d]imidazol-1-yl)-6-morpholino-1,3,5-triazin-2-yl)-N-(4-(trifluoromethoxy)phenyl)piperidin-4-amine] |
| > 70% | > 70% | CN(c1ccc(F)cc1)c1nc(N2CCOCC2)nc(N2CCC(Oc3ccc(F)cc3)CC2)n1 [1A3, 4-(4-(4-fluorophenoxy)piperidin-1-yl)-N-(4-fluorophenyl)-N-methyl-6-morpholino-1,3,5-triazin-2-amine] |
| > 70% | > 70% | Fc1ccc(NC2CCN(c3nc(N4CCOCC4)nc(-n4cnc5ccccc54)n3)CC2)cc1 [1B37, 1-(4-(1H-benzo[d]imidazol-1-yl)-6-morpholino-1,3,5-triazin-2-yl)-N-(4-fluorophenyl)piperidin-4-amine] |
